According to patent US20180362766A1, “Fluorogenic pH-Sensitive Dyes and Their Methods of Use” (Life Technologies Corporation, priority 2012, published 2018):

System: phagocytic J774.2 murine macrophages
Assay: No-wash phagocytosis assay with dye-conjugated E. coli bioparticles
Format: cell-based
Conditions: E. coli bioparticles conjugated to a pH-sensitive fluorescent dye
Source text: Certain embodiments provide for a no-wash, no-quench assay for phagocytosis that is based on fluorogenic bioparticles comprising the pH-sensitive fluorescent dye compounds provided herein. Current protocols for measuring phagocytosis that use fluorescent bioparticles, require a trypan blue quenching step and several washing steps. These steps can introduce significant variability in the assay. To address this issue, provided herein is a no-wash phagocytosis kit, using E. coli bioparticles conjugated to a pH-sensitive fluorescent dye as described herein. These bioparticle conjugates are weakly fluorescent at extracellular pH. […] The pH-sensitive fluorescent bioparticles described herein may be used in plate based, as well as imaging and flow cytometry assays of phagocytosis.

## C=C1[C@@H](C)[C@H]2[C@H](Cc3ccccc3)NC(=O)[C@]23[C@H](OC(C)=O)/C=C/[C@@](C)(O)C(=O)[C@@H](C)C/C=C/[C@H]3[C@@H]1O [cytochalaisin D, cytochalasin D]
  inhibition of uptake of the bioparticles (phagocytosis): potently inhibited
